Molecules are shown by their SMILES. In brackets after ≈: the same amount, converted by molar mass.

As usually defined, the solubility is how much of the substance goes into solution per volume.

The conditions of the first series: 20 °C.
Compound `CCSc1nnc(C(C)(C)C)c(=O)n1N` gave a solubility of 1.84 mM (≈ 420 µg/mL).

`CCCOc1ccc([N+](=O)[O-])cc1N` displayed a solubility of 0.693 mM (≈ 136 µg/mL). This solubility is about 2.7-fold lower than that of the compound before.

Consider `CC(O)(P(=O)(O)O)P(=O)(O)O`, for which the solubility turned out to be 3350 mM (≈ 690000 µg/mL).

As for `Clc1ncnc2[nH]cnc12`, the solubility was determined as 32.4 mM (≈ 5000 µg/mL).

Staying with this series, now noted: 22 °C.
`Nc1nc(N)nc(-c2ccccc2)n1` registered a solubility of 3.2 mM (≈ 600 µg/mL). This lies in the millimolar range.

`O=C(OCCOCCO)c1ccccc1Nc1cccc(C(F)(F)F)c1` gave a solubility of 0.00433 mM (≈ 1.6 µg/mL). This solubility lies about 740-fold lower than the previous one.

Still in this series, the particulars now being: 23 °C.
`COc1cc([C@@H]2c3cc4c(c(O)c3C[C@H]3COC(=O)[C@@H]32)OCO4)cc(OC)c1OC`: the solubility came to 0.0314 mM (≈ 13 µg/mL).

Still in this series, the particulars now being: 25 °C.
In turn, `O=C(C(=O)c1cc([N+](=O)[O-])ccc1O)c1cc([N+](=O)[O-])ccc1O` gave a solubility of 0.301 mM (≈ 100 µg/mL).

On to `Cc1cc(O)c(C(C)C)cc1Cl`, for which the solubility is 5.42 mM (≈ 1000 µg/mL).

Regarding `O=C(OC(=O)c1ccccc1)c1ccccc1`, the solubility stood at 0.0442 mM (≈ 10 µg/mL).

`NS(=O)(=O)c1cc2c(cc1C(F)(F)F)NC=NS2(=O)=O` showed a solubility of 152 mM (≈ 50000 µg/mL).

`O=C(CCCN1CCC(O)(c2ccc(Cl)cc2)CC1)c1ccc(F)cc1`: the solubility turned out to be 0.0372 mM (≈ 14 µg/mL). This solubility is about 4100-fold lower than that of the compound before.

Compound `COc1cc([C@@H]2c3cc4c(cc3[C@H](O)[C@H]3COC(=O)[C@@H]23)OCO4)cc(OC)c1OC` displayed a solubility of 0.241 mM (≈ 100 µg/mL).

In the case of `C=C(C)C(=O)C(=CC(=O)O)OC`, the solubility is 118 mM (≈ 20000 µg/mL). This solubility is about 490-fold higher than that of the compound before.

On to `NC(=O)c1cnccn1`, for which the solubility turned out to be 122 mM (≈ 15000 µg/mL). The solubility values of the last two compounds are within 1.5-fold of each other.

For the compound `CCC(O)(COC(N)=O)c1ccccc1` (configuration not stated), the solubility worked out at 119 mM (≈ 25000 µg/mL).

As to `NC(=O)c1cccnc1`, the solubility amounted to 4090 mM (≈ 500000 µg/mL).

Compound `CN1CCN(C(c2ccccc2)c2ccccc2)CC1` came in with a solubility of under 3.75 mM.

In the case of `O=C1OC(CN2CCOCC2)CN1N=Cc1ccc([N+](=O)[O-])o1` (configuration not stated), the solubility amounted to 2.31 mM (≈ 750 µg/mL). This lies in the millimolar range.

As for `CC1(C)CC(=O)CC(=O)C1`, the solubility stood at 29.7 mM (≈ 4160 µg/mL). This solubility is about 13-fold higher than that of the compound before.

Compound `Cn1c(=O)c2c(ncn2CC(O)CO)n(C)c1=O` (configuration not stated) displayed a solubility of 1310 mM (≈ 333000 µg/mL).

`C#CC1(OC(N)=O)CCCCC1` yielded a solubility of 15 mM (≈ 2500 µg/mL).

As to `C=C(C)Cn1c(N)cc(=O)n(C)c1=O`, the solubility amounted to 102 mM (≈ 20000 µg/mL).

For the compound `C[C@](N)(Cc1ccc(O)c(O)c1)C(=O)O`, the solubility came to 47.3 mM (≈ 10000 µg/mL).

The compound `O=C1CCC(=O)N1Cl` displayed a solubility of 107 mM (≈ 14300 µg/mL).

In turn, `O=C(O)[C@H](O)[C@@H](O)[C@H](O)[C@H](O)CO` displayed a solubility of 1610 mM (≈ 316000 µg/mL).

For `O=C1CN=C(c2ccccc2Cl)c2cc([N+](=O)[O-])ccc2N1`, the solubility is 0.317 mM (≈ 100 µg/mL).

Compound `CC(=O)OC(C)(C)C` returned a solubility of 71.7 mM (≈ 8330 µg/mL).

`O=CNc1ccccc1` showed a solubility of 210 mM (≈ 25400 µg/mL). This solubility lies about 2.9-fold higher than the previous one.

On to `CO[C@H]1O[C@H](CNC(=O)N(CCCl)N=O)[C@@H](O)[C@H](O)[C@H]1O`, for which the solubility worked out at 27.5 mM (≈ 9000 µg/mL).

In turn, `CCCn1cnc2c1c(=O)n(CCCCC(C)=O)c(=O)n2C` registered a solubility of 104 mM (≈ 32000 µg/mL). This solubility lies about 3.8-fold higher than the previous one.

In turn, `O=[N+]([O-])c1ccc(C=NO)o1` registered a solubility of 6.41 mM (≈ 1000 µg/mL). This solubility is about 16-fold lower than that of the compound before.

`NC1(C(=O)O)CCCC1` had a solubility of 387 mM (≈ 50000 µg/mL). This solubility is about 60-fold higher than that of the compound before.

On to `NC(=S)Nc1cccc2ccccc12`, for which the solubility stood at 2.97 mM (≈ 600 µg/mL).

The compound `CN1C(=O)CCS(=O)(=O)C1c1ccc(Cl)cc1` (configuration not stated) had a solubility of 9.13 mM (≈ 2500 µg/mL).

As for `NC(Cc1cc(Br)c(O)c(Br)c1)C(=O)O` (stereo in doubt), the solubility is 11.8 mM (≈ 4000 µg/mL).

For the compound `O=C(c1ccc(F)cc1)C1CCN(CCn2c(=O)[nH]c3ccccc3c2=O)CC1`, the solubility stood at 0.0253 mM (≈ 10 µg/mL).

`OCc1cc(Br)ccc1O` gave a solubility of 621 mM (≈ 126000 µg/mL).

Take `Oc1c(Cl)cc(Cl)cc1Sc1cc(Cl)cc(Cl)c1O`: the solubility turned out to be 0.0112 mM (≈ 4 µg/mL).

As for `C[C@@H]1C(=O)OC[C@H]2[C@@H]1CC[C@@H]2C`, the solubility amounted to 11.9 mM (≈ 2000 µg/mL).

In turn, `O=C1C(Br)=CC(=NCl)C=C1Br` had a solubility of 0.196 mM (≈ 58.8 µg/mL).

`O=c1[nH]c(=O)n([C@H]2C[C@H](O)[C@@H](CO)O2)cc1I` showed a solubility of 5.65 mM (≈ 2000 µg/mL). This solubility is about 29-fold higher than that of the compound before.

As to `CCCC(C)(COC(N)=O)COC(=O)NC(C)C` (configuration not stated), the solubility was found to be 1.15 mM (≈ 300 µg/mL). Against the preceding compound, the solubility is about 4.9-fold lower.

In turn, `C/C=C\C(=O)OC1C[C@H]2O[C@@H]3C=C(C)C(=O)C[C@]3(C)[C@]1(C)C21CO1` (some centres not stated) came in with a solubility of 1.2 mM (≈ 400 µg/mL).

Consider `CNC[C@H](O)[C@@H](O)[C@H](O)[C@H](O)CO`, for which the solubility was determined as 3620 mM (≈ 707000 µg/mL).

In turn, `C[C@H]1O[C@H](O[C@H]2CC[C@H](n3ccc(NC(=O)c4ccc(NC(=O)[C@@](C)(N)CO)cc4)nc3=O)O[C@@H]2C)[C@H](O)[C@@H](O)[C@@H]1N(C)C` registered a solubility of 3.23 mM (≈ 2000 µg/mL).

In turn, `CCCOC(=O)c1cc(O)c(O)c(O)c1` yielded a solubility of 16.5 mM (≈ 3500 µg/mL). Compared with the last compound, the solubility is about 5.1-fold higher.

The compound `Cn1c([N+](=O)[O-])cnc1COC(N)=O` showed a solubility of 14.3 mM (≈ 2870 µg/mL).

`Nc1ncnc2c1ncn2[C@]1(CO)O[C@H](CO)[C@@H](O)[C@H]1O`: the solubility amounted to 26.9 mM (≈ 8000 µg/mL).

The compound `S=P(N1CC1)(N1CC1)N1CC1` had a solubility of 1000 mM (≈ 190000 µg/mL).

The series is the same for the next values; noted with them: 26 °C.
On to `O=C(O)CCSCCC(=O)O`, for which the solubility is 209 mM (≈ 37200 µg/mL). This counts as millimolar.

Still in this series, the particulars now being: 27 °C.
`O=C(O)/C=C\C(=O)Nc1ccccc1` came in with a solubility of 5.23 mM (≈ 1000 µg/mL).

Still in this series, the particulars now being: 28 °C.
In turn, `Nc1ccc(S(=O)(=O)c2cnc(N)s2)cc1` came in with a solubility of 1.57 mM (≈ 400 µg/mL).

Still in this series, the particulars now being: 29 °C.
Turning to `NC(Cc1n[nH]c2ccccc12)C(=O)O` (configuration not stated), the solubility came to 39 mM (≈ 8000 µg/mL).

Still in this series, the particulars now being: 30 °C.
Turning to `Nc1ccc(S(=O)(=O)NC(=O)c2ccccc2)cc1`, the solubility turned out to be 1.12 mM (≈ 310 µg/mL).

In turn, `COCCOc1c(OC)cc(Cc2cnc(N)nc2N)cc1OC` displayed a solubility of 7.93 mM (≈ 2650 µg/mL).

Still in this series, the particulars now being: pH 5.5.
On to `Cc1cnc(NS(=O)(=O)c2ccc(N)cc2)nc1`, for which the solubility was 1.51 mM (≈ 400 µg/mL).

The values are drawn from the OPERA property sets (Mansouri et al. 2018).
